Laboratory results: patent publication US20110152298A1, “IMIDAZO [2,1-B] QUINAZOLIN-2-ONE DERIVATIVES AND THEIR USE AS PLATELET ANTI-AGGREGATIVE AGENTS” (SHIRE LLC, priority 2008, published 2011)

Key:
[1] = in vivo; cited from earlier work
[2] = molecular target: human phosphodiesterase III (PDE III); conditions: cited from earlier work
platelet count = conditions: patients with thrombocythemia secondary to a myeloproliferative disorder; cited from earlier work
[3] = system: human megakaryocytopoiesis; conditions: cited from earlier work
[4] = system: erythroid or myelomonocytic differentiation; conditions: stimulated by erythropoietin or granulocyte-macrophage colony-stimulating factor; cited from earlier work
[5] = Pharmacokinetics of anagrelide and its metabolite; assay type: in vivo, human; conditions: typical exposures, relative to anagrelide
Text: The PDE III inhibitory properties of anagrelide are quite distinct from its platelet lowering anti-megakaryocytic effects. Indeed studies have shown no correlation between potency as a PDE III inhibitor and anti-megakaryocytic effects for anagrelide and its principal pharmacologically active metabolite, 3-hydroxyanagrelide (3-OH anagrelide or 3-HA, formerly known as SPD604 or BCH24426). […] Anagrelide's active metabolite, 3-HA, is present in vivo in amounts greatly exceeding those of the parent drug with typical exposures being 2-3 fold greater. Thus by implication 3-OH anagrelide is likely to be a major contributor to the pharmacological actions of the drug.
The metabolism of anagrelide generally proceeds extremely rapidly, resulting in a less than ideal pharmacokinetic profile of the drug. […] This, combined with the side-effects profile, can lead to poor patient compliance. Furthermore, anagrelide undergoes a large first pass effect (>50%) leading to considerable intersubject variation in achieved exposures and, therefore, potentially variable drug response. Also, exposure to the pharmacologically active metabolite varies dramatically between patients since its formation is dependent on CYP1A, an enzyme whose expression is highly dependent on exposure to inducing agents such as cigarette smoke. […]

[6] = system: human phosphodiesterase III (PDE III); assay: PDE III inhibition; assay type: biochemical
Text: In early volunteer trials, the most frequently reported adverse effects AEs other than headache were palpitations, postural dizziness and nausea. During patient studies, the most frequently reported drug-related AEs were headache, palpitations, oedema/fluid retention, nausea/vomiting, diarrhea, dizziness and abdominal pain. These effects are all likely to arise from the secondary, cardiovascular pharmacology associated with anagrelide resulting from its inhibitory effects on human phosphodiesterase III (PDE III). […] Inhibition of myocardial PDE III leads to positive inotropy (increasing of the force of contractions of the heart), increased chronotropy (increase in heart rate), and peripheral vasodilatation. Such cardiovascular manifestations of this inhibition are typically seen with the classical positive inotropes, milrinone and enoximone, and exploited in the short-term acute treatment of congestive heart failure. However, in the treatment of a so-called silent disease (i.e., asymptomatic) such as ET, the cardiovascular side-effects of palpitations and tachycardia associated with anagrelide limit its utility and a significant proportion of patients—reportedly between 25 and 50%—fail to tolerate the drug during long term treatment.

exposure in vivo relative to parent drug [5] | potency as PDE III inhibitor relative to anagrelide [6] | SMILES | first pass effect [1] | IC50 [2] | time to complete response (platelet count ≦600×10^9/L) (platelet count) | IC50 ([3]; TPO-induced, dose-dependent, read-out: estimated IC50, inhibition of TPO-induced megakaryocytopoiesis) | effect on erythroid or myelomonocytic differentiation [4] | typical half-life [1] | potency of inhibition of megakaryocytopoiesis relative to parent drug ([3]; relative to anagrelide)
– | – | O=C1CN2Cc3c(ccc(Cl)c3Cl)N=C2N1 [Anagrelide, 6,7-dichloro-1,5-dihydroimidazo[2,1-b]-quinazolin-2(3H)-one] | > 50% | ~29 nM | 4 to 12 weeks | ~26 nM | does not affect | – | –
– | – | Cc1[nH]c(=O)c(C#N)cc1-c1ccncc1 [milrinone] | – | 170 to 350 nM | – | – | – | – | –
2-3 fold | over 40 fold | O=C1NC2=Nc3ccc(Cl)c(Cl)c3CN2C1O (stereo not shown) [3-hydroxyanagrelide] | – | – | – | – | – | 2.5 h | no more potent than the parent drug
